In BigSolDB 2.1:

c1ccc(OP2(Oc3ccccc3)=NP(Oc3ccccc3)(Oc3ccccc3)=NP(Oc3ccccc3)(Oc3ccccc3)=N2)cc1
Settings | solubility (mole fraction)
in 2-ethoxyethanol, 298.15 K | 0.0065
in 2-ethoxyethanol, 300.95 K | 0.0074
in 2-ethoxyethanol, 303.25 K | 0.0081
in 2-ethoxyethanol, 310.15 K | 0.0106
in 2-ethoxyethanol, 314.55 K | 0.0126
in 2-ethoxyethanol, 318.75 K | 0.0148
in 2-ethoxyethanol, 323.65 K | 0.0182
in 2-ethoxyethanol, 328.05 K | 0.0212
in 2-ethoxyethanol, 333.15 K | 0.0259
in 2-ethoxyethanol, 343.25 K | 0.0352
in 2-ethoxyethanol, 348.35 K | 0.042
in 2-ethoxyethanol, 353.15 K | 0.0478
in THF, 293.25 K | 0.151
in THF, 298.15 K | 0.175
in THF, 304.35 K | 0.2
in THF, 308.25 K | 0.223
in THF, 314.25 K | 0.253
in THF, 318.45 K | 0.285
in THF, 323.15 K | 0.315
in THF, 328.25 K | 0.346
in acetone, 293.15 K | 0.0295
in acetone, 296.45 K | 0.0349
in acetone, 300.25 K | 0.0423
in acetone, 304.35 K | 0.0496
in acetone, 308.25 K | 0.0588
in acetone, 314.25 K | 0.0782
in acetone, 318.35 K | 0.093
in acetone, 323.15 K | 0.117
in acetonitrile, 298.25 K | 0.004
in acetonitrile, 303.55 K | 0.006
in acetonitrile, 308.25 K | 0.0082
in acetonitrile, 313.35 K | 0.0122
in acetonitrile, 318.35 K | 0.017
in acetonitrile, 323.45 K | 0.0243
in acetonitrile, 328.15 K | 0.0332
in acetonitrile, 333.25 K | 0.0457
in dichloromethane, 293.35 K | 0.099
in dichloromethane, 295.95 K | 0.111
in dichloromethane, 300.35 K | 0.139
in dichloromethane, 303.15 K | 0.158
in dichloromethane, 306.05 K | 0.179
in dichloromethane, 310.35 K | 0.219
in diethyl ether, 293.15 K | 0.0101
in diethyl ether, 296.25 K | 0.0122
in diethyl ether, 299.05 K | 0.014
in diethyl ether, 300.35 K | 0.0154
in diethyl ether, 303.15 K | 0.0178
in diethyl ether, 306.05 K | 0.0211
in ethanol, 298.25 K | 0.0096
in ethanol, 300.95 K | 0.0099
in ethanol, 303.25 K | 0.0102
in ethanol, 308.15 K | 0.011
in ethanol, 313.45 K | 0.0119
in ethanol, 318.75 K | 0.0129
in ethanol, 323.05 K | 0.0136
in ethanol, 328.35 K | 0.0147
in ethyl acetate, 298.15 K | 0.0592
in ethyl acetate, 300.95 K | 0.0655
in ethyl acetate, 303.25 K | 0.0699
in ethyl acetate, 308.25 K | 0.0829
in ethyl acetate, 313.25 K | 0.0983
in ethyl acetate, 319.05 K | 0.119
in ethyl acetate, 323.15 K | 0.136
in ethyl acetate, 328.25 K | 0.159
in n-heptane, 298.15 K | 0.0035
in n-heptane, 303.45 K | 0.0039
in n-heptane, 308.35 K | 0.0044
in n-heptane, 313.05 K | 0.0049
in n-heptane, 318.25 K | 0.0056
in n-heptane, 323.35 K | 0.0062
in n-heptane, 328.25 K | 0.0069
in n-heptane, 333.15 K | 0.0075
in toluene, 298.05 K | 0.0572
in toluene, 300.95 K | 0.065
in toluene, 303.35 K | 0.0717
in toluene, 310.25 K | 0.0904
in toluene, 314.45 K | 0.106
in toluene, 318.65 K | 0.123
in toluene, 323.55 K | 0.15
in toluene, 327.95 K | 0.173
in toluene, 333.15 K | 0.209
in toluene, 338.25 K | 0.246
